Source: US8143254B2, “Methods for modulating ion channels” (Cornell Research Foundation, Inc., priority 2005, dated 2012)

Key:
[1] = target: T1, Kv2.1-K356C (Rattus norvegicus, UniProt P15387, K360C); test: Cysteine protection experiments, K356C variant of Kv2.1 in oocytes; format: cell-based
T1 construct: expressed in transfected cells; host or cells: Xenopus laevis oocytes (cRNA from pGA1)
T1 sequence (P15387 1-857 K360C): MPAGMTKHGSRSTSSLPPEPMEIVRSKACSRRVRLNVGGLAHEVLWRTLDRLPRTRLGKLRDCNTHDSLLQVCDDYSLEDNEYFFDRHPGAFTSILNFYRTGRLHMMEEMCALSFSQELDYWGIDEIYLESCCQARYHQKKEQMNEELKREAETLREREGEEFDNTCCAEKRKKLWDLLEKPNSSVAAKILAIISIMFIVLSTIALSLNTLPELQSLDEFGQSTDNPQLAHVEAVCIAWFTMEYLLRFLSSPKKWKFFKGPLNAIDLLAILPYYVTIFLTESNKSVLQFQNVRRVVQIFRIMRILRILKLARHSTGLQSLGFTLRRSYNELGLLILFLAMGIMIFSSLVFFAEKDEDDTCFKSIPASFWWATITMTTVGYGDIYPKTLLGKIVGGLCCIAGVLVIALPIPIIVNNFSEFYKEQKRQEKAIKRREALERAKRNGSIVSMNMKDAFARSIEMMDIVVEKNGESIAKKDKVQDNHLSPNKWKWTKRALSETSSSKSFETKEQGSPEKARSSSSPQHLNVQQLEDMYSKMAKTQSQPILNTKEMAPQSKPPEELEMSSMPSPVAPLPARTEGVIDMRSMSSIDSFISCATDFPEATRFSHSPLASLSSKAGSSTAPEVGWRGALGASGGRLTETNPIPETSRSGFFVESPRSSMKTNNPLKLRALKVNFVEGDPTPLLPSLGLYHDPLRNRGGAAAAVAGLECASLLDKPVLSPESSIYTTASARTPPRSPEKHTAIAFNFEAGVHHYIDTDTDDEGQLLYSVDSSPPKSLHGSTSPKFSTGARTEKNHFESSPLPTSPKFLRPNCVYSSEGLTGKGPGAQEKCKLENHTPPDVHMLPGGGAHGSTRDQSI
Excerpt: (§1) Kv2.1 mutants were constructed using the QuickChange Multi Site-Directed Mutagenesis Kit (Stratagene, La Jolla, Calif.). Mutant Kv2.1 genes (in the pGA1 oocyte expression vector for oocyte expression) were sequenced in their entirety to confirm appropriate mutations and check for inadvertent mutations, and then subcloned into a wild-type pGA1 backbone. For oocyte expression, Kv3.4 was in pBF1, Kv4.2 was in pRAT. cRNA transcripts were produced from SacII-linearized (Kv2.1), Mlullinearized (Kv3.4) and Not1-linearized (Kv4.2) DNA templates using the T3 (Kv2.1), SP6 (Kv3.4) and T7 (Kv4.2) mMessage mMachine kits (Ambion, Austin, Tex.). cRNA was quantified by spectrophotometry and its size integrity verified by gel electophoresis. Defolliculated stage V and VI Xenopus laevis oocytes (purchased from Nasco, Grand Island, N.Y.) were injected with 5 ng of cRNA encoding Kv2.1, Kv3.4 or Kv4.2. Chinese Hamster Ovary (CHO) cells were transfected with 0.25 μg Kv2.1 cDNA, 2 μg blank plasmid and 2 μg Green fluorescent Protein in pBOB using Supetfect transfection reagent (Qiagen) 24 hours before whole-cell voltage clamp studies.
Whole-cell two-electrode voltage-clamp (TEVC) recordings were performed on X laevis oocytes expressing cloned Kv2.1, Kv3.4 or Kv4.2 using a Warner OC-725C amplifier and pClamp9 (Axon Instruments, Foster City, Calif.) software. Oocytes were bathed in a small-volume Warner oocyte bath and viewed with a Fisher dissection microscope. Bath solution for whole-cell oocyte recordings was (in mM): 96 NaCl, 4 KCl, 0.7 MgCl2, 1 CaCl2, 10 HEPES (pH 7.4); whole-cell oocyte TEVC pipettes were of 0.2-2 M resistance when filled with 3 M KCl. Experiments were performed 24-48 hours after cRNA injection. For assessment of current-voltage relationships in the absence or presence of dabco derivatives, oocytes were held at −80 mV, stepped for 2 seconds at voltages between −80 mV and +60 mV in 20 mV steps (Kv2.1) or between −80 and +50 mV in 10 mV steps (Kv3.4), then held for 500 ms at −40 mV before returning to the holding potential. For assessment of block during wash-in of dabco derivatives at a single voltage, oocytes were held at −80 mV, and repetitively stepped to 0 mV for 2 s with an interpulse interval of 10 s or 60 s as indicated. A range of concentrations of dabco or dabco derivatives were washed in via the bath solution during repetitive single-voltage pulses (after an initial period of 5 pulses with control solution to ensure current stabilization) until equilibrium block was achieved, to establish dose-responses. Inhibited currents are compared to the current at the end of 5-pulse control period, thus some bar graphs show ‘control’ current values slightly less than 1, and with an error bar, to show how much currents deviate in the absence of drug. Washout was performed after the highest concentration of blocker was washed in. In cases where washout was achieved, only those recordings in which current returned to within 10% of original current level were used for construction of dose-response curves. For cysteine protection experiments using the K356C variant of Kv2.1, a dabco derivative (JC638.2a) was washed in to equilibrium block, followed by wash-in of a solution containing both JC638.2a and MTSET until no further changes in current were seen; following this the solution was washed out with standard bath solution. As controls for this protection analysis, JC638.2a or MTSET were washed in alone until equilibrium block, then washed out.

[2] = target: T2, Kv2.1 Y380T (Rattus norvegicus, UniProt P15387, Y380T/Y384T); test: TEVC of oocytes expressing Y380T mutant Kv2.1; format: cell-based; conditions: Y380T mutation in Kv2.1
T2 construct: expressed in transfected cells; host or cells: Xenopus laevis oocytes (cRNA from pGA1)
Excerpt: as §1, with “Chinese Hamster Ovary (CHO) cells were transfected with 0.25 μg Kv2.1 cDNA, 2 μg blank plasmid and 2 μg Green fluorescent Protein in pBOB using Supetfect transfection reagent (Qiagen) 24 hours before whole-cell voltage clamp studies.” left out
Data analysis: Current-voltage relationships were obtained by measuring peak current during depolarizing pulses. Inhibition constants for DABCO blockers were calculated after generating a dose response curve by fitting with a logistic dose-response function y=A2+[A1−A2/1+(x/x0)^p], where A1 is the maximum response plateau, A2 is the minimum response plateau, x is drug concentrator, x0 is the IC50, and p the Hill slope. […]

[3] = K356C-Kv2.1, JC638.2α plus MTSET

## c1cc(C[N+]23CCN(CC2)CC3)ccc1C[N+]12CCN(CC1)CC2 [JC638.2α, α,α′-[bis(4-aza-1-azoniabicyclo[2.2.2]octanyl)]p-xylene]
[1]; K356C mutant
  current inhibition, administered alone: 62±3%
[1]; K356C mutant, administered alone
  reversibility of block with washout: reversed with washout
[1]; [3]
  current inhibition, co-application with MTSET after pre-application: 84±1%
  reversibility with washout, co-application with MTSET: completely reversible with washout
[2]
  IC50: 185 ± 41 µM
  slope of dose response curve: 1.3
